Laboratory results as given in patent US20200237742A1, “Serdexmethylphenidate Conjugates, Compositions And Methods Of Use Thereof” (priority 2018, published 2020).
Counter-ions that a name gives are not always drawn.

Tested on: recreational stimulant abusers
Test: Intravenous abuse potential study, VAS pharmacodynamic assessments
Assay type: in vivo, human
Text: “Drug liking” score, used herein, is the score used to assess the degree that a human participant likes a drug effect at the time the question is being asked (that is, at the moment). It is scored using a 0 to 100 point bipolar visual analogue scale (VAS) anchored in the center with a neutral anchor of “neither like nor dislike” (score of 50), on the left with “strong disliking” (score of 0) and on the right with “strong liking” (score of 100).
“Euphoria” or “Feeling High” score, used herein, is the term to describe the score used to assess the degree that a human participant is high at the time the question is being asked (that is, at the moment). It is scored using a 0 to 100 point unipolar visual analogue scale (VAS) anchored on the left with “Not at All” (score of 0) and on the right with “Extremely” (score of 100).
“Take Drug Again” score, used herein, is the term to describe the score used to assess the degree that a human participant wants to take the drug again, if given the opportunity, based on his/her opinion now, i.e., at the time the question is being asked. It is scored using a 0 to 100 point unipolar visual analogue scale (VAS) anchored on the left with “Definitely Would Not” (score of 0) and on the right with “Definitely Would” (score of 100).
“Overall Drug Liking” score, used herein, is the term to describe the score used to assess the human subject's global perception of drug liking (i.e., the subjective effects over the whole course of the drug experience including any carryover effects). Subjects respond to the statement “Overall, my liking for this drug is.” The question is scored using a 0-100 point bipolar VAS anchored on the left with “Strong Disliking” (score of 0); “Neither Like nor Dislike” (score of 50) in the middle, and anchored on the right with “Strong Liking” (score of 100). This scale has the advantage of the human subject being relatively less affected or unaffected by acute study drug effects (if any) by the time of the assessment.
“Good Effects” score, used herein, is the term to describe the score used to assess the degree that a human participant is feeling good drug effects at the time the question is being asked (that is, at the moment). Subjects respond to the statement “At this moment, I can feel good drug effects.” It is scored using a 0 to 100 point unipolar visual analogue scale (VAS) anchored on the left with “Not at All” (score of 0) and on the right with “Extremely” (score of 100).
Safety assessments were performed throughout the study.

[1] = 12 hours, SDX Cl 30 mg, d-MPH HCl 15 mg
[2] = 12 hours, d-MPH HCl 15 mg vs SDX Cl 30 mg
[3] = 24 hours, d-MPH HCl 15 mg vs SDX Cl 30 mg
[4] = Emax, d-MPH HCl 15 mg vs SDX Cl 30 mg
[5] = d-MPH HCl 15 mg vs SDX Cl 30 mg
[6] = 12 hours, SDX Cl 30 mg vs placebo
[7] = 24 hours, SDX Cl 30 mg vs placebo
[8] = 24 hours, SDX Cl 30 mg, d-MPH HCl 15 mg

COC(=O)[C@H](c1ccccc1)[C@H]1CCCCN1 [d-methylphenidate hydrochloride, d-threo-methylphenidate hydrochloride]
Mean Overall Drug Liking [1]: 68.0
Median Overall Drug Liking [1]: 73.0
Mean Difference Take Drug Again, B vs A [2]: 43.3
Overall Drug Liking, Median difference B vs A [2]: 16.0
Mean Difference Take Drug Again, B vs A [3]: 39.2
Overall Drug Liking, Median difference B vs A [3]: 13.5
Mean Difference Take Drug Again, B vs A [4]: 43.1
Overall Drug Liking, Median difference B vs A [4]: 18.0
Feeling High Emax, Median difference B vs A [5]: 67.0
Good Effects Emax, Median difference B vs A [5]: 73.0
Median Difference Drug Liking Emax, B vs A (d-MPH HCl 15 mg vs SDX Cl 30 mg, bipolar VAS): 29.0

COC(=O)[C@H](c1ccccc1)[C@H]1CCCCN1C(=O)OC[n+]1cccc(C(=O)N[C@@H](CO)C(=O)O)c1.[Cl-] [serdexmethylphenidate chloride]
Mean Difference Take Drug Again, A vs C [6]: 9.1
Overall Drug Liking, Mean difference A vs C [6]: 2.8
Median Overall Drug Liking [1]: 50.0
Median Take Drug Again [1]: 0.0
Mean Difference Take Drug Again, A vs C [7]: 1.4
Overall Drug Liking, Mean difference A vs C [7]: 1.2
Median Overall Drug Liking [8]: 50.0
Median Take Drug Again [8]: 0.0
Mean Difference Take Drug Again, A vs C (Emax, SDX Cl 30 mg vs placebo): 6.0
Overall Drug Liking, Mean difference A vs C (Emax, SDX Cl 30 mg vs placebo): 1.4
Feeling High Emax, Mean difference A vs C (SDX Cl 30 mg vs placebo): 3.4
Good Effects Emax, Mean difference A vs C (SDX Cl 30 mg vs placebo): 2.2
Median Difference Drug Liking Emax, A vs C (SDX Cl 30 mg vs placebo, bipolar VAS): 0.5
